According to patent publication US10975093B2, “Fused 1,4-diazepines as BET protein degraders” (THE REGENTS OF THE UNIVERSITY OF MICHIGAN, priority 2016, dated 2021):

Legend:
[1] = tested on: MDA-MB-231; assay: Cell growth inhibition, CellTiter-Glo Luminescent Cell Viability Assay, MDA-MB-231; assay type: cell-based; details: Homo sapiens, MDA-MB-231 cells, 4 days incubation
Protocol: (§1) Cell growth inhibitory activity of representative Compounds of the Disclosure was determined in various cell lines using CellTiter-Glo® Luminescent Cell Viability Assay. Cells were seeded in 384-well white opaque cell culture plates at a density of 2,000 cells/well with serially diluted compounds and incubated at 37° C. in an atmosphere of 95% air and 5% CO2 for 4 days. Cell viability was determined using the CellTiter-Glo® Luminescent Cell Viability Assay Kit (Promega, Madison, Wis.) according to the manufacture's instruction. Briefly, a volume of CellTiter-Glo® Reagent equal to the volume of cell culture medium was added to each well, and then the plates were incubated at room temperature for 10-20 minutes. The luminescent signal was measured using a Tecan Infinite M1000 multimode microplate reader (Tecan, Morrisville, N.C.). The half maximal inhibitory concentration (IC50) was calculated using the GraphPad Prism 5 software (GraphPad Software, La Jolla, Calif.).

[2] = tested on: MOLM-13; assay: Cell growth inhibition, CellTiter-Glo Luminescent Cell Viability Assay, MOLM-13; assay type: cell-based; details: Homo sapiens, MOLM-13 cells, 4 days incubation
Protocol: as §1

IC50 ([1]; MDA-MB-231, 96 h) [nM]	IC50 ([2]; MOLM-13, 96 h) [nM]	SMILES	IC50 ([1]; 96 h) [nM]	IC50 ([2]; 96 h) [nM]
–	–	Cc1c(C#Cc2ccc(OCCC#Cc3cccc4c3CN(C3CCC(=O)NC3=O)C4=O)cn2)sc2c1C(c1ccc(Cl)cc1)=NCc1nnc(C)n1-2 (stereo not drawn) [Cpd. No. 15, 3-(4-(4-((6-((4-(4-chlorophenyl)-3,9-dimethyl-6H-thieno[3,2-f][1,2,4]triazolo[4,3-a][1,4]diazepin-2-yl)ethynyl)pyridin-3-yl)oxy)but-1-yn-1-yl)-1-oxoisoindolin-2-yl)piperidine-2,6-dione]	39.1	82.6
0.1	0.05	Cc1c(C#Cc2cnn(CCCN3CCC(Nc4cccc5c4CN(C4CCC(=O)NC4=O)C5=O)CC3)c2)sc2c1C(c1ccc(Cl)cc1)=N[C@@H](CC(N)=O)c1nnc(C)n1-2 (stereo partly drawn) [compound 190, 2-((6S)-4-(4-chlorophenyl)-2-((1-(3-(4-((2-(2,6-dioxopiperidin-3-yl)-1-oxoisoindolin-4-yl)amino)piperidin-1-yl)propyl)-1H-pyrazol-4-yl)ethynyl)-3,9-dimethyl-6H-thieno[3,2-f][1,2,4]triazolo[4,3-a][1,4]diazepin-6-yl)acetamide]	–	–
> 100	> 100	Cc1c(C#Cc2cnn(CCn3cnc(CNc4cccc5c4CN(C4CCC(=O)NC4=O)C5=O)c3)c2)sc2c1C(c1ccc(Cl)cc1)=NCc1nnc(C)n1-2 (stereo not drawn) [compound 150, 3-(4-(((1-(2-(4-((4-(4-chlorophenyl)-3,9-dimethyl-6H-thieno[3,2-f][1,2,4]triazolo[4,3-a][1,4]diazepin-2-yl)ethynyl)-1H-pyrazol-1-yl)ethyl)-1H-imidazol-4-yl)methyl)amino)-1-oxoisoindolin-2-yl)piperidine-2,6-dione]	–	–
93	42.3	Cc1ncsc1-c1ccc([C@H](C)NC(=O)[C@@H]2C[C@@](C)(O)CN2C(=O)[C@@H](NC(=O)COCCCn2cc(C#Cc3sc4c(c3C)C(c3ccc(Cl)cc3)=N[C@@H](C)c3nnc(C)n3-4)cn2)C(C)(C)C)cc1 [compound 205, (2S,4R)-1-((S)-2-(2-(3-(4-(((S)-4-(4-chlorophenyl)-3,6,9-trimethyl-6H-thieno[3,2-f][1,2,4]triazolo[4,3-a][1,4]diazepin-2-yl)ethynyl)-1H-pyrazol-1-yl)propoxy)acetamido)-3,3-dimethylbutanoyl)-4-hydroxy-4-methyl-N-((S)-1-(4-(4-methylthiazol-5-yl)phenyl)ethyl)pyrrolidine-2-carboxamide]	–	–
0.3	0.8	Cc1c(C#Cc2cnn(CCN3CCN(c4cccc5c4C(=O)N(C4CCC(=O)NC4=O)C5=O)CC3)c2)sc2c1C(c1ccc(Cl)cc1)=N[C@@H](C)c1nnc(C)n1-2 (stereo partly drawn) [compound 183, 4-(4-(2-(4-(((S)-4-(4-chlorophenyl)-3,6,9-trimethyl-6H-thieno[3,2-f][1,2,4]triazolo[4,3-a][1,4]diazepin-2-yl)ethynyl)-1H-pyrazol-1-yl)ethyl)piperazin-1-yl)-2-(2,6-dioxopiperidin-3-yl)isoindoline-1,3-dione]	–	–
4.6	3.3	Cc1c(C#Cc2cnn(C[C@H]3C[C@H](Nc4cccc5c4CN(C4CCC(=O)NC4=O)C5=O)C3)c2)sc2c1C(c1ccc(Cl)cc1)=N[C@@H](C)c1nnc(C)n1-2 (stereo partly drawn) [compound 173, 3-(4-(((1S,3r)-3-((4-(((S)-4-(4-chlorophenyl)-3,6,9-trimethyl-6H-thieno[3,2-f][1,2,4]triazolo[4,3-a][1,4]diazepin-2-yl)ethynyl)-1H-pyrazol-1-yl)methyl)cyclobutyl)amino)-1-oxoisoindolin-2-yl)piperidine-2,6-dione]	–	–
11.1	10.3	Cc1c(C#Cc2ccc(CCCCNc3cccc4c3CN(C3CCC(=O)NC3=O)C4=O)nc2)sc2c1C(c1ccc(Cl)cc1)=NCc1nnc(C)n1-2 (stereo not drawn) [Cpd. No. 17, 3-(4-((4-(5-((4-(4-chlorophenyl)-3,9-dimethyl-6H-thieno[3,2-f][1,2,4]triazolo[4,3-a][1,4]diazepin-2-yl)ethynyl)pyridin-2-yl)butyl)amino)-1-oxoisoindolin-2-yl)piperidine-2,6-dione]	–	–
0.06	0.03	Cc1c(C#Cc2cnn(CCCN3CCC(Nc4cccc5c4CN(C4CCC(=O)NC4=O)C5=O)CC3)c2)sc2c1C(c1ccc(Cl)cc1)=N[C@@H](CC(=O)Nc1ccc(O)cc1)c1nnc(C)n1-2 (stereo partly drawn) [compound 193, 2-((6S)-4-(4-chlorophenyl)-2-((1-(3-(4-((2-(2,6-dioxopiperidin-3-yl)-1-oxoisoindolin-4-yl)amino)piperidin-1-yl)propyl)-1H-pyrazol-4-yl)ethynyl)-3,9-dimethyl-6H-thieno[3,2-f][1,2,4]triazolo[4,3-a][1,4]diazepin-6-yl)-N-(4-hydroxyphenyl)acetamide]	–	–
7.2	2.5	Cc1c(C#Cc2cnn(CCCC#Cc3ccc4c(c3)C(=O)N(C3CCC(=O)NC3=O)C4=O)c2)sc2c1C(c1ccc(Cl)cc1)=N[C@@H](C)c1nnc(C)n1-2 (stereo partly drawn) [compound 158, 5-(5-(4-(((S)-4-(4-chlorophenyl)-3,6,9-trimethyl-6H-thieno[3,2-f][1,2,4]triazolo[4,3-a][1,4]diazepin-2-yl)ethynyl)-1H-pyrazolo-1-yl)pent-1-yn-1-yl)-2-(2,6-dioxopiperidin-3-yl)isoindoline-1,3-dione]	–	–
37.5	–	Cc1ncsc1-c1ccc([C@H](C)NC(=O)[C@@H]2C[C@@H](F)CN2C(=O)[C@@H](NC(=O)COCCCn2cc(C#Cc3sc4c(c3C)C(c3ccc(Cl)cc3)=N[C@@H](C)c3nnc(C)n3-4)cn2)C(C)(C)C)cc1 [compound 203]	–	–
1.7	1.1	Cc1c(C#Cc2ccc(OCCC#Cc3cccc4c3CN(C3CCC(=O)NC3=O)C4=O)cn2)sc2c1C(c1ccc(Cl)cc1)=N[C@@H](C)c1nnc(C)n1-2 (stereo partly drawn) [Cpd. No. 16, 3-(4-(4-((6-(((S)-4-(4-chlorophenyl)-3,6,9-trimethyl-6H-thieno[3,2-f][1,2,4]triazolo[4,3-a][1,4]diazepin-2-yl)ethynyl)pyridin-3-yl)oxy)but-1-yn-1-yl)-1-oxoisoindolin-2-yl)piperidine-2,6-dione]	–	–
12.2	8.7	Cc1c(C#Cc2cnn(CCCCn3cnc(CNc4cccc5c4CN(C4CCC(=O)NC4=O)C5=O)c3)c2)sc2c1C(c1ccc(Cl)cc1)=NCc1nnc(C)n1-2 (stereo not drawn) [compound 152, 3-(4-(((1-(4-(4-((4-(4-chlorophenyl)-3,9-dimethyl-6H-thieno[3,2-f][1,2,4]triazolo[4,3-a][1,4]diazepin-2-yl)ethynyl)-1H-pyrazol-1-yl)butyl)-1H-imidazol-4-yl)methyl)amino)-1-oxoisoindolin-2-yl)piperidine-2,6-dione]	–	–
17.6	12.8	Cc1c(C#Cc2cnn(CCCn3cnc(COc4cccc5c4CN(C4CCC(=O)NC4=O)C5=O)c3)c2)sc2c1C(c1ccc(Cl)cc1)=NCc1nnc(C)n1-2 (stereo not drawn) [compound 156, 3-(4-((1-(3-(4-((4-(4-chlorophenyl)-3,9-dimethyl-6H-thieno[3,2-f][1,2,4]triazolo[4,3-a][1,4]diazepin-2-yl)ethynyl)-1H-pyrazol-1-yl)propyl)-1H-imidazol-4-yl)methoxy)-1-oxoisoindolin-2-yl)piperidine-2,6-dione]	–	–
1.7	–	Cc1c(C#Cc2cnn(CCOCCOCCNc3cccc4c3CN(C3CCC(=O)NC3=O)C4=O)c2)sc2c1C(c1ccc(Cl)cc1)=N[C@@H](C)c1nnc(C)n1-2 (stereo partly drawn) [compound 188, 3-(4-((2-(2-(2-(4-(((S)-4-(4-chlorophenyl)-3,6,9-trimethyl-6H-thieno[3,2-f][1,2,4]triazolo[4,3-a][1,4]diazepin-2-yl)ethynyl)-1H-pyrazol-1-yl)ethoxy)ethoxy)ethyl)amino)-1-oxoisoindolin-2-yl)piperidine-2,6-dione]	–	–
–	0.6	Cc1c(C#Cc2cnn(CCCN3CC(Nc4cccc5c4CN(C4CCC(=O)NC4=O)C5=O)C3)c2)sc2c1C(c1ccc(Cl)cc1)=N[C@@H](C)c1nnc(C)n1-2 (stereo partly drawn) [compound 177, 3-(4-((1-(3-(4-(((S)-4-(4-chlorophenyl)-3,6,9-trimethyl-6H-thieno[3,2-f][1,2,4]triazolo[4,3-a][1,4]diazepin-2-yl)ethynyl)-1H-pyrazol-1-yl)propyl)azetidin-3-yl)amino)-1-oxoisoindolin-2-yl)piperidine-2,6-dione]	–	–
–	91.6	Cc1ncsc1-c1ccc([C@H](C)NC(=O)[C@@H]2COCCN2C(=O)[C@@H](NC(=O)COCCCn2cc(C#Cc3sc4c(c3C)C(c3ccc(Cl)cc3)=N[C@@H](C)c3nnc(C)n3-4)cn2)C(C)(C)C)cc1 [compound 202, (S)-4-((S)-2-(2-(3-(4-(((S)-4-(4-chlorophenyl)-3,6,9-trimethyl-6H-thieno[3,2-f][1,2,4]triazolo[4,3-a][1,4]diazepin-2-yl)ethynyl)-1H-pyrazol-1-yl)propoxy)acetamido)-3,3-dimethylbutanoyl)-N-((S)-1-(4-(4-methylthiazol-5-yl)phenyl)ethyl)morpholine-3-carboxamide]	–	–

SMILES	IC50 ([1]; MDA-MB-231, 96 h) [nM]	IC50 ([2]; MOLM-13, 96 h) [nM]	IC50 ([1]; 96 h) [nM]	IC50 ([2]; 96 h) [nM]
Cc1c(C#Cc2cnn(CCCCOc3cccc4c3CN(C3CCC(=O)NC3=O)C4=O)c2)sc2c1C(c1ccc(Cl)cc1)=NCc1nnc(C)n1-2 (stereo not drawn) [compound 146, 3-(4-(4-(4-((4-(4-chlorophenyl)-3,9-dimethyl-6H-thieno[3,2-f][1,2,4]triazolo[4,3-a][1,4]diazepin-2-yl)ethynyl)-1H-pyrazol-1-yl)butoxy)-1-oxoisoindolin-2-yl)piperidine-2,6-dione]	1.2	1	–	–
